According to ChEMBL document CHEMBL5338738, “Discovery of Novel Sesquiterpene Lactone Derivatives as Potent PKM2 Activators for the Treatment of Ulcerative Colitis” (J Med Chem, 2023):
Active and inactive are the calls of the source. The rule behind the calls is not given here.

Tests used:
CD4+ve Th [1] = test: (§1) Inhibition of Th17 cells differentiation in anti-CD3/CD28 stimulated C57BL/6 mouse mesenteric lymph node CD4+ve Th cells assessed as increase in PKM2 tetramer formation at 0.1 to 3 uM incubated for 96 hrs in presence of recombinant human TGF-beta, recombinant mouse IL-6 and recombinant mouse IL-23 by Western blot analysis; type: functional, cell-based; conditions: dose 0.1-3 µM
CD4+ve Th [2] = test: (§2) Inhibition of aerobic glycolysis in anti-CD3/CD28 stimulated C57BL/6 mouse mesenteric lymph node CD4+ve Th cells assessed as downregulation of Hk2 mRNA expression level at 0.3 to 3 uM incubated for 96 hrs in presence of recombinant human TGF-beta, recombinant mouse IL-6 and recombinant mouse IL-23 by qPCR analysis; type: functional, cell-based; conditions: dose 0.3-3 µM
[3] = (§3) Inhibition of Treg cells differentiation in anti-CD3/CD28 stimulated C57BL/6 mouse mesenteric lymph node CD4+ve Th cells assessed as decrease in proportion of Foxp3-positive Treg cells at 1 uM incubated for 96 hrs in presence of recombinant human TGF-beta by flow cytometry (Rvb= 21.1%); type: functional; conditions: C57BL/6, CD4+ve Th
[4] = Cmax in Sprague-Dawley rat at 75 mg/kg,po and measured upto 24 hrs by LC-MS/MS analysis; type: ADME, organism-based; set-up: dose 75 mg/kg, time < 24 hrs, route po; conditions: in vivo
CD4+ve Th [5] = test: as §2, with “Pfk1” for “Hk2”; type: functional, cell-based; conditions: dose 0.3-3 µM
[6] = Oral bioavailability in Sprague-Dawley rat at 75 mg/kg and measured upto 24 hrs by LC-MS/MS analysis; type: ADME, organism-based; conditions: in vivo
CD4+ve Th [7] = test: as §1, with “decrease” for “increase”, “expression in nucleus” for “tetramer formation”; type: functional, cell-based; conditions: dose 0.1-3 µM
[8] = Tmax in Sprague-Dawley rat at 8 mg/kg,iv and measured upto 24 hrs by LC-MS/MS analysis; type: ADME, organism-based; conditions: in vivo
Pyruvate kinase PKM [9] = biological target: T1, Pyruvate kinase PKM (Homo sapiens, UniProt P14618); test: Activation of PKM2 (unknown origin) incubated for 30 mins
Mus musculus [10] = test: Anti-colitis activity against DSS-induced ulcerative colitis C57BL/6 mouse model assessed as reduction in spleen index at 12.5 to 25 mg/kg, po for 10 days consecutively; type: functional, organism-based; conditions: dose 12.5-25 mg/kg, time 10.0 day
Mus musculus [11] = test: Anti-colitis activity against DSS-induced ulcerative colitis C57BL/6 mouse model assessed as downregulation of Foxp3 mRNA expression level in mesenteric lymph nodes at 6.25 to 25 mg/kg, po for 10 days consecutively by qPCR assay; type: functional, organism-based; conditions: dose 6.25-25 mg/kg, time 10.0 day
CD4+ve Th [12] = test: as §2, with “decrease in ATP production” for “downregulation of Hk2 mRNA expression level”, “colorimetric assay” for “qPCR analysis”; type: functional, cell-based; conditions: dose 0.3-3 µM
Mus musculus [13] = test: Anti-colitis activity against TNBS-induced ulcerative colitis BALB/c mouse model assessed as decrease in crypt necrosis in colon at 12.5 to 25 mg/kg, po for consecutive 7 days by H and E staining based microscopy; type: functional, organism-based; conditions: dose 12.5-25 mg/kg, time 7.0 day
CD4+ve Th [14] = test: as §2, with “Th17 cells differentiation” for “aerobic glycolysis”, “IL17f” for “Hk2”, “0.1” for “0.3”; type: functional, cell-based; conditions: dose 0.1-3 µM
CD4+ve Th [15] = test: as §2, with “Glut1 protein” for “Hk2 mRNA”, “Western blot” for “qPCR”; type: functional, cell-based; conditions: dose 0.3-3 µM
CD4+ve Th [16] = test: Inhibition of Treg cells differentiation in anti-CD3/CD28 stimulated C57BL/6 mouse mesenteric lymph node CD4+ve Th cells assessed as change in Foxp3 mRNA expression level cells at 0.1 to 3 uM incubated for 96 hrs in presence of recombinant human TGF-beta by qPCR analysis; type: functional, cell-based; conditions: dose 0.1-3 µM
Mus musculus [17] = test: Anti-colitis activity against DSS-induced ulcerative colitis C57BL/6 mouse model assessed as downregulation of Foxp3 mRNA expression level in colon at 6.25 to 25 mg/kg, po for 10 days consecutively by qPCR assay; type: functional, organism-based; conditions: dose 6.25-25 mg/kg, time 10.0 day
Mus musculus [18] = test: Anti-colitis activity against TNBS-induced ulcerative colitis BALB/c mouse model assessed as increase in survival rate at 12.5 to 25 mg/kg, po for consecutive 7 days; type: functional, organism-based; conditions: dose 12.5-25 mg/kg, time 7.0 day
Mus musculus [19] = test: Anti-colitis activity against DSS-induced ulcerative colitis C57BL/6 mouse model assessed as decrease in MPO level in colon at 12.5 to 25 mg/kg, po for 10 days consecutively; type: functional, organism-based; conditions: dose 12.5-25 mg/kg, time 10.0 day
Mus musculus [20] = test: Anti-colitis activity against DSS-induced ulcerative colitis C57BL/6 mouse model assessed as decrease in IL-6 mRNA expression level in colon at 12.5 to 25 mg/kg, po for 10 days consecutively by qPCR analysis; type: functional, organism-based; conditions: dose 12.5-25 mg/kg, time 10.0 day
CD4+ve Th [21] = test: Cytotoxicity against C57BL/6 mouse mesenteric lymph node CD4+ve Th cells assessed as reduction in cell proliferation at 0.3 to 3 uM incubated for 96 hrs by CCK-8 assay; type: toxicity, cell-based; conditions: dose 0.3-3 µM
Mus musculus [22] = test: Anti-colitis activity against DSS-induced ulcerative colitis C57BL/6 mouse model assessed as increase in colon length at 12.5 to 25 mg/kg, po for 10 days consecutively; type: functional, organism-based; conditions: dose 12.5-25 mg/kg, time 10.0 day
[23] = Genotoxicity in Salmonella typhimurium by AMES test; type: toxicity; conditions: salmonella enterica subsp. enterica serovar typhimurium
Mus musculus [24] = test: Anti-colitis activity against TNBS-induced ulcerative colitis BALB/c mouse model assessed as decrease in infiltration of inflammatory cells into lamina propria in colon at 12.5 to 25 mg/kg, po for consecutive 7 days by H and E staining based microscopy; type: functional, organism-based; conditions: dose 12.5-25 mg/kg, time 7.0 day
Pyruvate kinase PKM [25] = biological target: T1, Pyruvate kinase PKM; test: Binding affinity to PKM2 (unknown origin) by SPR assay
[26] = Half life in Sprague-Dawley rat at 8 mg/kg,iv and measured upto 24 hrs by LC-MS/MS analysis; type: ADME, organism-based; conditions: in vivo
Mus musculus [27] = test: Anti-colitis activity against DSS-induced ulcerative colitis C57BL/6 mouse model assessed as downregulation of RORC mRNA expression level in mesenteric lymph nodes at 12.5 to 25 mg/kg, po for 10 days consecutively by qPCR assay; type: functional, organism-based; conditions: dose 12.5-25 mg/kg, time 10.0 day
[28] = biological target: Pyruvate kinase PKM (Mus musculus) (UniProt P52480); test: Binding affinity to PKM2 in C57BL/6 mouse mesenteric lymph node CD4+ve Th cells assessed as increase in denaturation temperature at 3 uM incubated for 4 hrs by […] analysis; conditions: filed as activator
CD4+ve Th [29] = test: as §2, with “Th17 cells differentiation” for “aerobic glycolysis”, “IL22” for “Hk2”, “0.1” for “0.3”; type: functional, cell-based; conditions: dose 0.1-3 µM
[30] = as §3, with “Th17” for “Treg”, “IL17A-positive Th17” for “Foxp3-positive Treg”, “0.3” for “1”, “TGF-beta, recombinant mouse IL-6 and recombinant mouse IL-23” for “TGF-beta”, “16.7%)” for “21.1%)”; type: functional; conditions: C57BL/6, CD4+ve Th
Mus musculus [31] = test: Anti-colitis activity against DSS-induced ulcerative colitis C57BL/6 mouse model assessed as downregulation of IL17a mRNA expression level in mesenteric lymph nodes at 12.5 to 25 mg/kg, po for 10 days consecutively by qPCR assay; type: functional, organism-based; conditions: dose 12.5-25 mg/kg, time 10.0 day

T1 sequence (P14618 whole entry): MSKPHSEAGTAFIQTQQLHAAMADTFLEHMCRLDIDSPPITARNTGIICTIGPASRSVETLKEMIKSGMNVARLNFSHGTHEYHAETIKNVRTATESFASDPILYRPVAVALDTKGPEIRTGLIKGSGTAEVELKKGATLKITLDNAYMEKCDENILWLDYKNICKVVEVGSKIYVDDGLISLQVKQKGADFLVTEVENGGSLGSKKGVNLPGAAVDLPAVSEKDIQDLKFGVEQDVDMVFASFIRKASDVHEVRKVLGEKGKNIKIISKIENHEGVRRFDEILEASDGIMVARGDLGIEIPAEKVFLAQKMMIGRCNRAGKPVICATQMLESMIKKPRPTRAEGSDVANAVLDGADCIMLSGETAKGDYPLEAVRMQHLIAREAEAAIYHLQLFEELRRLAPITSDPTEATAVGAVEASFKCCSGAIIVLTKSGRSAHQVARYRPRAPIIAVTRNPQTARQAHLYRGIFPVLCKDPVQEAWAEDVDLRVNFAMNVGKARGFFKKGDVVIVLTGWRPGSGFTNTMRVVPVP
Sequence of Pyruvate kinase PKM (Mus musculus) (P52480 whole entry): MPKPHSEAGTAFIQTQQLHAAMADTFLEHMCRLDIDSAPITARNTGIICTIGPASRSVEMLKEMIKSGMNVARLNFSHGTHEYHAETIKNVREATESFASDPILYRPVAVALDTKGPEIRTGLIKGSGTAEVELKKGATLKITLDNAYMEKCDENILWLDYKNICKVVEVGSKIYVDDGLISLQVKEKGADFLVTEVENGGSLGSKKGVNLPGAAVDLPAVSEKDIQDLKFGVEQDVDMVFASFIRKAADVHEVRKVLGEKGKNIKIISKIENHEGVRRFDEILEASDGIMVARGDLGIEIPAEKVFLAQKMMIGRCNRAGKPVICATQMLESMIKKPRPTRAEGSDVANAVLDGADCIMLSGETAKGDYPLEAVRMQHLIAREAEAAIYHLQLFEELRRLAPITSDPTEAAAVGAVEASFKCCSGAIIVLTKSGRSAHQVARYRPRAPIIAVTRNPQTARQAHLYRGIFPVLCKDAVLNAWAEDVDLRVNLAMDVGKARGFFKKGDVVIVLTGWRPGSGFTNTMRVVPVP

Cmax [4]: 82 ng/mL | bioavailability [6]: 2.8% | Tmax [8]: 4.98 min | EC50 (Pyruvate kinase PKM [9]): 202 nM | Kd (Pyruvate kinase PKM [25]): 18.4 nM | half-life [26]: 2 h | ΔTm [28]: 6 °C
SMILES: C=C1C(=O)O[C@H]2[C@H]1CC[C@@]1(C)[C@@H](CC[C@@]3(C)O[C@@H]23)C1(F)F
inhibition (CD4+ve Th [1]): Active | inhibition (CD4+ve Th [2]): Active | Foxp3+ cells at 1 µM [3]: 22.8% | inhibition (CD4+ve Th [5]): Active | inhibition (CD4+ve Th [7]): Active | Activity (Mus musculus [10]): Active | Activity (Mus musculus [11]): inactive | inhibition (CD4+ve Th [12]): Active | Activity (Mus musculus [13]): Active | inhibition (CD4+ve Th [14]): Active | inhibition (CD4+ve Th [15]): Active | inhibition (CD4+ve Th [16]): inactive | Activity (Mus musculus [17]): inactive | Activity (Mus musculus [18]): Active | Activity (Mus musculus [19]): Active | Activity (Mus musculus [20]): Active | Activity (CD4+ve Th [21]): Non-Toxic | Activity (Mus musculus [22]): Active | Activity [23]: Non-Toxic | Activity (Mus musculus [24]): Active | Activity (Mus musculus [27]): Active | inhibition (CD4+ve Th [29]): Active | IL17A+ cells at 0.3 µM [30]: 12.4% | Activity (Mus musculus [31]): Active
